Measured values from ChEMBL document CHEMBL1156578, “Countercurrent separation of natural products” (J Nat Prod, 2008).

How the values were obtained:
[1] = Octanol-water partition coefficient, log KOW in heptane-ethyl alcohol-water (4:1:4); type: physicochemical
[2] = Partition coefficient, log K in n-butyl alcohol-ethyl acetate-water by shake flask method (1:4:5); type: physicochemical
[3] = Partition coefficient, log K in n-hexane-ethyl acetate-ethyl alcohol-water (3:7:3:7); type: physicochemical
[4] = Partition coefficient, K in n-butyl alcohol-ethyl acetate-water by shake flask method (2:3:5)
[5] = Partition coefficient, log K in n-hexane-ethyl acetate-ethyl alcohol-water (3:7:1:9); type: physicochemical
[6] = Partition coefficient, log K in n-hexane-ethyl acetate-ethyl alcohol-water (5:5:3:7); type: physicochemical
[7] = Partition coefficient, log K in n-hexane-ethyl acetate-ethyl alcohol-water (1:9:1:9); type: physicochemical

Compound	log K [1]	log K [2]	log K [3]	K [4]	log K [5]	log K [6]	log K [7]
CCNC(=O)c1ccccc1	1.51						
COc1ccc(/C=C/C(=O)O)cc1OC [O,O'-DIMETHYLCAFFEIC ACID]	1.56						
COc1ccc([C@@H]2OC[C@H]3[C@@H]2CO[C@@H]3c2ccc(O[C@@H]3O[C@H](CO)[C@@H](O)[C@H](O)[C@H]3O)c(OC)c2)cc1OC [PHILLYRIN]		3.87	0.246	6.25	0.312	0.099	0.799
